Test results as given in ChEMBL document CHEMBL4725442, “Exception That Proves the Rule: Investigation of Privileged Stereochemistry in Designing Dopamine DR Bitopic Agonists” (ACS Med Chem Lett, 2020).

What was measured:
Format in all cases: cell-based
[1] = molecular target: T1, D(1A) dopamine receptor (Homo sapiens, UniProt P21728); assay: Displacement of [3H]-SCH23390 from human D1 receptor expressed in HEK293 cells at 100 uM after 60 mins by microbeta counting based assay relative to control
[2] = molecular target: T1, D(1A) dopamine receptor; assay: Displacement of [3H]-SCH23390 from human D1 receptor expressed in HEK293 cells after 60 mins by microbeta counting based assay
[3] = molecular target: T2, Mu-type opioid receptor (Homo sapiens, UniProt P35372); assay: Displacement of [3H]-DAMGO from human MOR expressed in HEK293 cells after 60 mins by microbeta counting based assay
[4] = molecular target: D(3) dopamine receptor (Homo sapiens, UniProt P35462); assay: Displacement of [3H]-(R)-(+)-7-OH-DPAT from human D3 receptor expressed in HEK293 cells after 90 mins by microbeta counting based assay
[5] = molecular target: D(2) dopamine receptor (Homo sapiens, UniProt P14416); assay: Displacement of [3H]-(R)-(+)-7-OH-DPAT from human D2L receptor expressed in HEK293 cells after 90 mins by microbeta counting based assay
[6] = molecular target: T2, Mu-type opioid receptor; assay: Displacement of [3H]-DAMGO from human MOR expressed in HEK293 cells at 100 uM after 60 mins by microbeta counting based assay relative to control

T2 sequence (P35372 whole entry): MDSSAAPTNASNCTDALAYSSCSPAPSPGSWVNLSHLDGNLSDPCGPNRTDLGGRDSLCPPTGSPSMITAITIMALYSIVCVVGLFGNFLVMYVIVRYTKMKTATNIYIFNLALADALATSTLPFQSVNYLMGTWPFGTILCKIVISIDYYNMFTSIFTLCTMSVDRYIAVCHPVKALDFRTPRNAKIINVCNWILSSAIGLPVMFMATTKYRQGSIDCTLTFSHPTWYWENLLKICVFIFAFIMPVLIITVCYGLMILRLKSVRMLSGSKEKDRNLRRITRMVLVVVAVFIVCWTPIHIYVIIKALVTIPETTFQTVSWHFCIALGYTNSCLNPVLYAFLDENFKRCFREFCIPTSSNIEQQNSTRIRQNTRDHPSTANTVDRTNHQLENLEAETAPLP
T1 sequence (P21728 whole entry): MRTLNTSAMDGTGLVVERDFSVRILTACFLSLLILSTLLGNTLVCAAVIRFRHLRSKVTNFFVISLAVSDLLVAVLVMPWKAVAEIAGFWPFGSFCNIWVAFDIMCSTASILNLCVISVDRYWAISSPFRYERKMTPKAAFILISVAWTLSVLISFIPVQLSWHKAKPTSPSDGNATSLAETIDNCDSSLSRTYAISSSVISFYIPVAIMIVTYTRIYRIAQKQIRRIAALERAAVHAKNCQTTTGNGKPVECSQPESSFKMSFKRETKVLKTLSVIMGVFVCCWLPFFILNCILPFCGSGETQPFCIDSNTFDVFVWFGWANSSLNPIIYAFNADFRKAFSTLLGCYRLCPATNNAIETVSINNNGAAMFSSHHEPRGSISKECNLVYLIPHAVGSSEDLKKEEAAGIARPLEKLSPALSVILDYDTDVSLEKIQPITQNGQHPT
Sequence of D(3) dopamine receptor (P35462 whole entry): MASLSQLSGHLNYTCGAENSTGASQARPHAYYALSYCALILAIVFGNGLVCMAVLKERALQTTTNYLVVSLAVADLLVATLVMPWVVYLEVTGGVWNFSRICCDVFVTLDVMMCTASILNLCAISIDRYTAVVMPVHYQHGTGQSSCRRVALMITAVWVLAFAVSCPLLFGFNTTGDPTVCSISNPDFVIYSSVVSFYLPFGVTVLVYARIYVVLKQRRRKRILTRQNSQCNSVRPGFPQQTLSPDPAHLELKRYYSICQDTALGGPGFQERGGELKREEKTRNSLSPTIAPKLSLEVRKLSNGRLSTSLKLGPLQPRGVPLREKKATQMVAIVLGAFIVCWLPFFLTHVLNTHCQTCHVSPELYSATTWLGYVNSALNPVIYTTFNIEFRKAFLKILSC
Sequence of D(2) dopamine receptor (P14416 whole entry): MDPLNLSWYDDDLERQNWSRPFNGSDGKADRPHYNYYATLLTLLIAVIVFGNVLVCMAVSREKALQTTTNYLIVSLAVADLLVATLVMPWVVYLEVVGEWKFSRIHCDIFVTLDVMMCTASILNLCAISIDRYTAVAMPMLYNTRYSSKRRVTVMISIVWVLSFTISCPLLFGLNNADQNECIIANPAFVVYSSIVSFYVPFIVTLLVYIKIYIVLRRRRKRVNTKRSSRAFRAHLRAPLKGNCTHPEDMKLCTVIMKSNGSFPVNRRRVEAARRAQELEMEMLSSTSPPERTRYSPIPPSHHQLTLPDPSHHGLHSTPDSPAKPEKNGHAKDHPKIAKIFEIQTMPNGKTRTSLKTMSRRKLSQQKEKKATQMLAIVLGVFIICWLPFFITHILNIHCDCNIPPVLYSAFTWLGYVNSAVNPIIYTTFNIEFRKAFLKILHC

Row | SMILES | inhibition [1] | Ki [2] | Ki [3] | Ki [4] | Ki [5] | inhibition [6]
1 | CCCN1CCO[C@@H]2c3cc(O)ccc3OC[C@H]21 | < 50% | – | – | – | – | –
2 | C[C@H]1CO[C@@H](c2ccc(N)nc2)CN1CC(O)CCNC(=O)c1cc2ccccc2[nH]1 (stereo partly specified) | < 50% | > 100 µM | – | – | – | –
3 | O=C(NCCCCN1CCO[C@H]2c3cc(O)ccc3OC[C@@H]21)c1cc2ccccc2[nH]1 (relative stereo) | < 50% | > 100 µM | 12.4 µM | 5.54 µM | 5.88 µM | –
4 | O=C(NCCCCN1CCO[C@@H]2c3cc(O)ccc3OC[C@@H]21)c1cc2ccccc2[nH]1 (relative stereo) | < 50% | > 100 µM | 12.3 µM | 13.8 µM | 9.42 µM | –
5 | CCCN1CC(c2ccc(N)nc2)OC[C@@H]1C (mixture of isomers) | < 50% | > 100 µM | > 100 µM | – | – | < 50%
6 | C[C@H]1CO[C@@H](c2ccc(N)nc2)CN1CC[C@H]1CC[C@H](NC(=O)c2cc3ccccc3[nH]2)CC1 (relative stereo) | < 50% | > 100 µM | 21.9 µM | – | – | –
7 | CCCN1CCO[C@H]2c3cc(O)ccc3OC[C@@H]21 | < 50% | – | – | – | – | –
